# Target: T1, AhR (Homo sapiens, UniProt P35869)
# T1 construct: The HepG2 CYP1A1-Luc cells do express basal luciferase activity that can be increased via potent AhR agonists or decreased via potent AhR antagonists; endogenous in cells; host or cells: HepG2 (DSMZ #ACC 180) stably carrying a human CYP1A1 promoter-firefly luciferase reporter
# T1 sequence (P35869 11-848): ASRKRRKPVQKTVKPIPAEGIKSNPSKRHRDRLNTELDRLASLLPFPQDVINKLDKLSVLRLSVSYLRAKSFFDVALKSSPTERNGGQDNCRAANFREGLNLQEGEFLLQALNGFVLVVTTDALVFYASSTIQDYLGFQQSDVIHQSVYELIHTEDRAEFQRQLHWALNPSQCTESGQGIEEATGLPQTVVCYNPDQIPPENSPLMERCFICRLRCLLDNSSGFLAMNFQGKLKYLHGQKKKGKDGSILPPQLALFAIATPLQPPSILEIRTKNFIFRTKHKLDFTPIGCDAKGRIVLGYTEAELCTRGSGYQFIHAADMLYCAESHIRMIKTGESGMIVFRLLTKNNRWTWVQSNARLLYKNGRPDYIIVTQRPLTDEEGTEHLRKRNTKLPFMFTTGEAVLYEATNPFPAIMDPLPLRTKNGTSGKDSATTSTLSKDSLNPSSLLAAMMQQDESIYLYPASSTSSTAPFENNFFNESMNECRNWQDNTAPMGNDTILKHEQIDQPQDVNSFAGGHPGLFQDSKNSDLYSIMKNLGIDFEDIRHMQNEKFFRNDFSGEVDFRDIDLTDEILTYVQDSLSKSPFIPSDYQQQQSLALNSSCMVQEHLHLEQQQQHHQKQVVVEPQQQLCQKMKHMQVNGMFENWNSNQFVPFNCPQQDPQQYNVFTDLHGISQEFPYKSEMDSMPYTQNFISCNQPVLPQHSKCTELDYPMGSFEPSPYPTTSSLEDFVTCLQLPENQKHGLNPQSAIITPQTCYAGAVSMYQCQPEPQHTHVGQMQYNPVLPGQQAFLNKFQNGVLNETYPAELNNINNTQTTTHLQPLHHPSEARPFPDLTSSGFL
# Assay: AhR direct luciferase reporter assay in HepG2 cells (HepG2 CYP1A1-LUC)
# Assay type: cell-based
# Conditions: 18 hours, luciferase activity, no exogenous AhR agonist or 10 nM VAF347, read-out: AhR potency (AhR antagonistic potency, IC50)
# Excerpt: AhR direct luciferase reporter assay in HepG2 cells.
# A stable cell line (HepG2 CYP1A1-LUC) was used in which part of the promoter region of the human CYP1A1 gene is stably integrated into the genome of human HepG2 hepatocytes (DSZM #ACC 180) in front of a Photinus pyralis Firefly Luciferase gene. A 1210 bp fragment comprising part of the human CYP1A1 promoter was isolated via SacI and BglII restriction digestion from Lightswitch Clone S714555 (SwitchGearGenomics) and inserted between the SacI and BglII sites in pGL4.30 (Promega #E8481) in front of the Firefly Luciferase gene. The resulting vector was linearized with NotI, transfected into HepG2 cells (DSMZ #ACC 180) and stably transfected clones selected with 250 μg/ml Hygromycin B. After repetitive rounds of subcloning and testing for robustly regulated luciferase activity after AhR agonist stimulation, a stable clonal HepG2 CYP1A1-Luc cell line was selected.
# The HepG2 CYP1A1-Luc cells do express basal luciferase activity that can be increased via potent AhR agonists or decreased via potent AhR antagonists, added to the growth medium of the cells.
# In typical reporter assays performed with this cell line, cells are grown in 96-well plates and AhR modulators are titrated into the growth medium in serial dilutions in RPMI-1640 Medium (Sigma #R7509) supplemented with 8.6% fetal calf serum (Sigma #F7524) and containing either no exogenous AhR agonist or 10 nM of the potent AhR agonist VAF347 (Calbiochem #182690). Cells are further cultivated for 18 hours and luciferase activities are determined from extracts of cells in buffers containing D-Luciferine and ATP using a LUMIstar Optima microplate Luminometer from BMG Labtech.
row,IC50,Compound
1,< 0.1 µM,Cc1ccccc1-c1cc2cnc(NC(=O)c3ncnn3C)cc2[nH]1 [2/1]
2,0.1 to 1 µM,Cn1ncnc1C(=O)Nc1cc2[nH]c(-c3c(Cl)cccc3Cl)cc2cn1 [2/2]
3,< 0.1 µM,Cn1ncnc1C(=O)Nc1cc2[nH]c(-c3ccccc3C(F)F)c(F)c2cn1 [2/3]
4,< 0.1 µM,Cn1ncnc1C(=O)Nc1cc2[nH]c(-c3ccccc3C(F)F)c(Cl)c2cn1 [2/4]
5,0.1 to 1 µM,Cn1ncnc1C(=O)Nc1cc2[nH]c(-c3cc(C(F)F)ccc3F)cc2cn1 [2/5]
6,< 0.1 µM,Cn1ncnc1C(=O)Nc1cc2[nH]c(-c3cc(C#N)ccc3C(F)(F)F)cc2cn1 [2/6]
7,> 1 µM,Cn1ncnc1C(=O)Nc1cc2[nH]c(-c3ccccc3C(C)(C)O)cc2cn1 [2/7]
8,0.1 to 1 µM,Cn1cncc1C(=O)Nc1cc2[nH]c(-c3ccccc3C(F)F)cc2cn1 [4/1]
9,< 0.1 µM,Cn1ccnc1C(=O)Nc1cc2[nH]c(-c3ccccc3C(F)F)cc2cn1 [4/2]
10,< 0.1 µM,Cc1ocnc1C(=O)Nc1cc2[nH]c(-c3ccccc3C(F)F)cc2cn1 [4/3]
11,0.1 to 1 µM,"Cc1ccccc1-c1cc2cnc(NC(=O)c3ccnn3C)cc2[nH]1 [Example 1, 1-Methyl-N-(2-(o-tolyl)-1H-pyrrolo[3,2-c]pyridin-6-yl)-1H-pyrazole-5-carboxamide]"
12,< 0.1 µM,"Cn1nccc1C(=O)Nc1cc2[nH]c(-c3ccccc3C(F)(F)F)cc2cn1 [Example 1/1, 1-Methyl-N-(2-(2-(trifluoromethyl)phenyl)-1H-pyrrolo[3,2-c]pyridin-6-yl)-1H-pyrazole-5-carboxamide]"
13,< 0.1 µM,"Cn1ncnc1C(=O)Nc1cc2[nH]c(-c3ccccc3C(F)(F)F)cc2cn1 [Example 1/2, 1-Methyl-N-(2-(2-(trifluoromethyl)phenyl)-1H-pyrrolo[3,2-c]pyridin-6-yl)-1H-1,2,4-triazole-5-carboxamide]"
14,< 0.1 µM,"O=C(Nc1cc2[nH]c(-c3ccccc3C(F)(F)F)cc2cn1)c1ccccn1 [Example 1/3, N-(2-(2-(Trifluoromethyl)phenyl)-1H-pyrrolo[3,2-c]pyridin-6-yl) picolinamide]"
15,< 0.1 µM,"Cn1ncnc1C(=O)Nc1cc2[nH]c(-c3cc(F)ccc3C(F)(F)F)cc2cn1 [Example 1/4, N-(2-(5-Fluoro-2-(trifluoromethyl)phenyl)-1H-pyrrolo[3,2-c]pyridin-6-yl)-1-methyl-1H-1,2,4-triazole-5-carboxamide]"
16,> 1 µM,"Cn1cnnc1C(=O)Nc1cc2[nH]c(-c3ccccc3C(F)F)cc2cn1 [Example 1/5, N-(2-(2-(Difluoromethyl)phenyl)-1H-pyrrolo[3,2-c]pyridin-6-yl)-4-methyl-4H-1,2,4-triazole-3-carboxamide]"
17,< 0.1 µM,"Cn1ncnc1C(=O)Nc1cc2[nH]c(-c3ccccc3C(F)F)cc2cn1 [Example 1/6, N-(2-(2-(Difluoromethyl)phenyl)-1H-pyrrolo[3,2-c]pyridin-6-yl)-1-methyl-1H-1,2,4-triazole-5-carboxamide]"
18,< 0.1 µM,"Cn1cnnc1C(=O)Nc1cc2[nH]c(-c3cc(F)ccc3C(F)(F)F)cc2cn1 [Example 1/7, N-(2-(5-Fluoro-2-(trifluoromethyl)phenyl)-1H-pyrrolo[3,2-c]pyridin-6-yl)-4-methyl-4H-1,2,4-triazole-3-carboxamide]"
19,< 0.1 µM,"Cn1ncnc1C(=O)Nc1cc2[nH]c(-c3cc(F)ccc3C(F)F)cc2cn1 [Example 1/8, N-(2-(2-(Difluoromethyl)-5-fluorophenyl)-1H-pyrrolo[3,2-c]pyridin-6-yl)-1-methyl-1H-1,2,4-triazole-5-carboxamide]"
20,0.1 to 1 µM,"Cn1ncnc1C(=O)Nc1cc2[nH]c(-c3ccoc3C(F)F)cc2cn1 [Example 1/9, N-(2-(2-(Difluoromethyl)furan-3-yl)-1H-pyrrolo[3,2-c]pyridin-6-yl)-1-methyl-1H-1,2,4-triazole-5-carboxamide]"
21,< 0.1 µM,"Cn1ncnc1C(=O)Nc1cc2[nH]c(-c3cc(C(F)(F)F)ccc3C(F)(F)F)cc2cn1 [Example 1/10, N-(2-(2,5-Bis(trifluoromethyl)phenyl)-1H-pyrrolo[3,2-c]pyridin-6-yl)-1-methyl-1H-1,2,4-triazole-5-carboxamide]"
22,< 0.1 µM,"Cn1ncnc1C(=O)Nc1cc2[nH]c(-c3cc(C4CC4)ccc3C(F)(F)F)cc2cn1 [Example 1/11, N-(2-(5-Cyclopropyl-2-(trifluoromethyl)phenyl)-1H-pyrrolo[3,2-c]pyridin-6-yl)-1-methyl-1H-1,2,4-triazole-5-carboxamide]"
23,0.1 to 1 µM,"Cn1ncnc1C(=O)Nc1cc2[nH]c(-c3cc(F)c(F)cc3C(F)F)cc2cn1 [Example 1/12, N-(2-(2-(Difluoromethyl)-4,5-difluorophenyl)-1H-pyrrolo[3,2-c]pyridin-6-yl)-1-methyl-1H-1,2,4-triazole-5-carboxamide]"
24,< 0.1 µM,"CCc1ccc(C(F)(F)F)c(-c2cc3cnc(NC(=O)c4ncnn4C)cc3[nH]2)c1 [Example 1/13, N-(2-(5-Ethyl-2-(trifluoromethyl)phenyl)-1H-pyrrolo[3,2-c]pyridin-6-yl)-1-methyl-1H-1,2,4-triazole-5-carboxamide]"
25,0.1 to 1 µM,"CC(C)c1ccccc1-c1cc2cnc(NC(=O)c3ncnn3C)cc2[nH]1 [Example 2, N-(2-(2-Isopropylphenyl)-1H-pyrrolo[3,2-c]pyridin-6-yl)-1-methyl-1H-1,2,4-triazole-5-carboxamide]"
26,0.1 to 1 µM,"CN(C(=O)c1ncnn1C)c1cc2[nH]c(-c3cc(F)ccc3C(F)F)cc2cn1 [Example 3, N-(2-(2-(Difluoromethyl)-5-fluorophenyl)-1H-pyrrolo[3,2-c]pyridin-6-yl)-N,1-dimethyl-1H-1,2,4-triazole-5-carboxamide]"
27,< 0.1 µM,"Cc1scnc1C(=O)Nc1cc2[nH]c(-c3ccccc3C(F)F)cc2cn1 [Example 4, N-(2-(2-(Difluoromethyl)phenyl)-1H-pyrrolo[3,2-c]pyridin-6-yl)-5-methylthiazole-4-carboxamide]"
28,0.1 to 1 µM,"Cn1ncnc1C(=O)Nc1cc2[nH]c(-c3ccccc3C(F)F)c(C#N)c2cn1 [Example 5, N-(3-Cyano-2-(2-(difluoromethyl)phenyl)-1H-pyrrolo[3,2-c]pyridin-6-yl)-1-methyl-1H-1,2,4-triazole-5-carboxamide]"

# From patent US11376241B2, “Aryl hydrocarbon receptor (AhR) modulator compounds” (PHENEX PHARMACEUTICALS AG, priority 2017, dated 2022)
